Read-outs that look alike come from different tables or passages of the source.
Tests used:
17β-HSD3 = biological target: T1, 17β-HSD3 (Homo sapiens, UniProt P37058); assay: Assay for 17β-HSD3 activity (TLC assay) in 293-EBNA cells stably transfected with 17β-HSD3; format: cell-based; conditions: for inhibition at 10 µM: 293-EBNA, mean of at least two measurements, typically SD ±5%
T1 construct: expressed in transfected cells; host or cells: human 293-EBNA cells, stably transfected
T1 sequence (P37058 1-310): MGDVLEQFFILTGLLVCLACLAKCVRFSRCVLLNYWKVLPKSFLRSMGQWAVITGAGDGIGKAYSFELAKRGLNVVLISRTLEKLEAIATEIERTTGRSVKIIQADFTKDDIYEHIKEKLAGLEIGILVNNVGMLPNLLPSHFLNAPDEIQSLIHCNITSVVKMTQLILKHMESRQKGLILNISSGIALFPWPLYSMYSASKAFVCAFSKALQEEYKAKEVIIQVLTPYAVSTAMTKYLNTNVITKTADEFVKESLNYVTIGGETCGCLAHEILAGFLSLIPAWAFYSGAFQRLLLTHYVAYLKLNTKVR
Experimental: Human 293-EBNA cells stably transfected with 17β-HSD3 were plated at 50,000 cells/well in 24 well plates in complete growth medium. After 48 h 2–3 nM [^3H]-androstenedione in assay medium (500 mL DMEM medium with 5 mL 100 × L-glutamine and 5 mL 7.5% sodium bicarbonate solution) was added with or without test compound at 1.5 mL/well (triplicate), and the cells incubated at 37 °C. Two hours later 1 mL medium was removed from each well and placed in a 125 × 16 mm glass test tube containing 25 µL of recovery solution (5000 dpm ^14C-testosterone and 25 µg unlabelled testosterone […], and the tubes vortexed at high speed for 2 × 30 s. After the samples had settled into two phases, they were snap-frozen in a dry ice/methanol bath. The upper organic phase was decanted into 75 × 12 mm tubes and evaporated to dryness under an airstream using a sample concentrator (TECHNE) at 40 °C. The samples were resuspended in ether (8 drops, then a further 3), spotted onto ca 60 F254 20 cm × 20 cm TLC plates and separated using a 4:1 v/v dichloromethane: ethyl acetate mobile phase. After drying the plates, the major spots were marked under a UV lamp, cut out and placed in individual scintillation vials containing 0.5 mL methanol. These were then shaken lightly and allowed to stand for 15 min before adding 10 mL of EcoScintA (scintillation fluid) to each tube along with 0.5 mL assay medium and counted in a scintillation spectrometer (Beckman, High Wycombe, Bucks, UK), using a program for duel [^3H/^14C] isotopes. The number of cells/well was then counted using a Coulter10 counter (Beckman). The inhibitory activity of the test compounds was then assessed by calculating the amount of product formed correcting for crossover between isotope counts, recovery, dilution and non-enzymatic degradation fmol/hr/million cells) with and without inhibitor (% inhibition).

17β-HSD Type 1 = biological target: T2, 17β-HSD Type 1 (Homo sapiens, UniProt P14061); assay: 17β-HSD1 activity assay in T-47D breast cancer cells (estrone to estradiol); format: cell-based; conditions: T47D, T-47D cells; for inhibition at 10 µM: tested at 10 μM
T2 construct: endogenous in cells; host or cells: T-47D breast cancer cells
T2 sequence (P14061 1-328): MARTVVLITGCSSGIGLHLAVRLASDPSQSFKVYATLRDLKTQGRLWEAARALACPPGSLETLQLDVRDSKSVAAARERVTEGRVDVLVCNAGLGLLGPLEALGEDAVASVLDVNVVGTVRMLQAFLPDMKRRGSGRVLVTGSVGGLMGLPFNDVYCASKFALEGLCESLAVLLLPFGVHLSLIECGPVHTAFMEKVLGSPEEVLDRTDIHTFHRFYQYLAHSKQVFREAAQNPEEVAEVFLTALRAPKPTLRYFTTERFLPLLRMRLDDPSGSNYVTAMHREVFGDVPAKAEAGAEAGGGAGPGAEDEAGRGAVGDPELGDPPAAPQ
Experimental: The assay is of a similar format to the 17β-HSD Type 3 TLC assay. T-47D breast cancer cells, which express a high ratio of 17β-HSD Type 1 to 17β-HSD Type 2, were used to test the conversion of labelled estrone to estradiol in the presence and absence of the potential inhibitors. The cells were incubated with [^3H]-estrone at a concentration of 2 nM, in the absence or presence of the inhibitors (10 μM). After incubation of the culture for 3 h at 37 °C, the products were isolated and separated by TLC using DCM/ EtOAc (4:1). The amount of estradiol formed was measured and compared to the control cells, where no inhibitor was present. Each assay was carried out in the presence of a positive control (IC50 of 27 nM) to ensure reproducible results were obtained.

17β-HSD Type 2 [1] = biological target: T3, 17β-HSD Type 2 (Homo sapiens, UniProt P37059); assay: 17β-HSD2 activity assay in MDA-MB-231 cells (E2 to E1); format: cell-based; parameters: endogenous in cells; host or cells: MDA-MB-231 human breast cancer cells
T3 sequence (P37059 1-387): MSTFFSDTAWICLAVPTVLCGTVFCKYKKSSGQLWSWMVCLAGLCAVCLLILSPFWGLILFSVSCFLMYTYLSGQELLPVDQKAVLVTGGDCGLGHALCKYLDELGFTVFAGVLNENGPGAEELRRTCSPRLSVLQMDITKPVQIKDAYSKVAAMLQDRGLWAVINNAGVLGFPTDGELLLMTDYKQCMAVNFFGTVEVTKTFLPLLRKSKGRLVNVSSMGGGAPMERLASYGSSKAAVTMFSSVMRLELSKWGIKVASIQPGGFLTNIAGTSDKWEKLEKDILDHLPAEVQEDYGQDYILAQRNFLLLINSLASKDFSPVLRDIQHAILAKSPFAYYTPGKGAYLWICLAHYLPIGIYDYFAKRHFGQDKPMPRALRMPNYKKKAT
Experimental: MDA-MB-231 human breast cancer cells in T25 flasks were incubated with 2 nM [^3H]-E2 (41.3 Ci/mmol; PerkinElmer, Beaconsfield, Bucks, UK) in the presence or absence of 10 µM candidate 17β-HSD3 inhibitors. After 3 h at 37 °C, the steroids were isolated from the mixture by extraction with diethyl ether and procedural losses were measured using [^14C]-E1 (5000 dpm; PerkinElmer). Separation of [^3H]-E1 from [^3H]-E2 was achieved using thin layer chromatography, eluting with dichloromethane/ethyl acetate, 4:1 v/v and the amount of [^3H]-E1 produced was calculated from the […] [^3H] counts detected and recovery of [^14C]-E1 (Beckman LS 6000 SC). A positive control was used in this assay (IC50 5.4 μM) to ensure reproducible results were obtained.

human 17β-HSD3 = test system: human 17β-HSD3; parameters: method as in PMID 22512907; conditions: whole HEK-293 cells over-expressing human 17β-HSD3; cited from earlier work
[2] = parameters: method as in PMID 22512907; conditions: given subcutaneously to rats; cited from earlier work
[3] = Compound toxicity, MTS/Alamar Blue proliferation assay, PC-3; format: cell-based; conditions: human, PC-3 (AR-) prostate cancer cells; PC3 (AR-); read-out: Cytotoxicity IC50 (µM) PC3 (AR-)
Experimental: (§1) AR+ (LNCaP) and AR- (PC-3) PCa cell lines were used as standard lines to determine the cytotoxicity of HSD3 inhibitor compounds. Toxicity was assessed over 96 h in 96 well plates using the standard MTS/Alamar Blue proliferation assay and over longer durations by cell counting methodologies.

[4] = Compound toxicity, MTS/Alamar Blue proliferation assay, LNCaP; format: cell-based; conditions: human, LNCaP (AR+) prostate cancer cells; read-out: Cytotoxicity IC50 (µM) LNCaP (AR+)
Experimental: as §1

[5] = test system: androstenedione-stimulated tumour growth; parameters: method as in PMID 18786604, PMID 23132791; conditions: mouse model; cited from earlier work
[6] = parameters: method as in PMID 18786604, PMID 23132791; conditions: introduction; cited from earlier work
[7] = test system: LNCaP and PC-3 PCa cell lines; parameters: method as in PMID 18786604, PMID 23132791; conditions: introduction; cited from earlier work
17β-HSD Type 2 [8] = biological target: T3, 17β-HSD Type 2; conditions: introduction; cited from earlier work
[9] = TLC assay, 293-EBNA[HSD3] cells, read-out: IC50 (17β-HSD3)

SMILES	inhibition at 10 µM (17β-HSD3; TLC assay) [%]	IC50 (17β-HSD3; [9]) [nM]	melting point [°C]	inhibition at 10 µM (17β-HSD Type 2 [1]) [%]	inhibition at 10 µM (17β-HSD Type 1) [%]	IC50 at 96 h [3] [µM]	IC50 at 96 h [4] [µM]	other results
CC(=O)Nc1ccccc1CNc1ccccc1Oc1ccc(Cl)cc1 [Compound 1, N-(2-([2-(4-Chloro-phenoxy)-phenylamino]-methyl)-phenyl)-acetamide]	87	900	194 to 196	15.9				inhibition at 1 µM (17β-HSD Type 1; tested at 1 μM): 1.3%
CC(=O)N1CCC(C(=O)Nc2ccccc2CNc2ccccc2Oc2ccc(Cl)cc2)CC1 [Compound 23, 1-Acetyl-piperidine-4-carboxylic acid (2-[2-(4-chloro-phenoxy)-phenylamino]-methyl-phenyl)-amide]	91	3900	140 to 143		-2.3			
C[C@@H]1CN(S(=O)(=O)c2ccccc2C(F)(F)F)[C@@H](C)CN1[C@@]1(O)CC[C@@]2(C)C(CCC3C2CC[C@]2(C)C(=O)CCC32)C1 (stereo partly drawn) [RM-532-105]								IC50 (human 17β-HSD3): 0.005 µM; plasma levels of T and DHT [2]: significantly decreased
CC(=O)N1CCC(CC(=O)N2CCN(C(c3ccc(Cl)cc3)c3ccc(Cl)cc3)C[C@@H]2C(C)(C)C)CC1 [SCH-451659]				18.4	19.6	6.8	5.5	IC50 (17β-HSD3; Table 10, read-out: Inhibition of 17β-HSD Type 3 (IC50 nM)): 5 nM
CC(=O)N1CCCC(Nc2ccccc2Oc2ccc(Cl)cc2)c2ccccc21 (stereo not drawn) [STX2171]		200		20.3		22	15.7	inhibition of androstenedione-stimulated tumour growth [5]: potent inhibition; androgenicity [6]: non-androgenic; cytotoxicity in words [7]: weakly cytotoxic; selectivity for inhibition of 17β-HSD3 over 17β-HSD2 (17β-HSD Type 2 [8]): selective

Reference: PMC8659031, “Substituted Aryl Benzylamines as Potent and Selective Inhibitors of 17β-Hydroxysteroid Dehydrogenase Type 3” (Molecules, 2021)
